In ChEMBL document CHEMBL5346911, “From PROTAC to inhibitor: Structure-guided discovery of potent and orally bioavailable BET inhibitors” (Eur J Med Chem, 2023):
Converted amounts (≈) assume the structure as drawn.

Assays:
[1] = molecular target: T1, Bromodomain-containing protein 2 (Homo sapiens, UniProt P25440); assay: Inhibition of BRD2 BD1 (unknown origin) by TR-FRET assay
[2] = molecular target: T1, Bromodomain-containing protein 2; assay: Inhibition of BRD2 BD2 (unknown origin) by TR-FRET assay
[3] = molecular target: T2, Bromodomain-containing protein 4 (Homo sapiens, UniProt O60885)
Description: Inhibition of BRD4 BD2 (unknown origin) by TR-FRET assay

[4] = system: HD-MB03; assay: cells; details: Homo sapiens, HD-MB03, 72 h
[5] = system: D283 Med; assay: cells; details: Homo sapiens, 72 h
[6] = cells; details: Homo sapiens, NALM16, 72 h
[7] = system: MV4-11; assay: cells; details: Homo sapiens, MV4-11, 72 h
[8] = in vitro; details: human, plasma
[9] = system: MOLM-13; assay: cells; details: Homo sapiens, MOLM-13, 72 h
[10] = Downregulation of MYC level in human MV4-11 cells at 100 nM measured after 6 hrs by immunoblotting analysis relative to control; format: functional
[11] = Downregulation of MYC level in human MV4-11 cells at 1 uM measured after 6 hrs by immunoblotting analysis relative to control; format: functional
[12] = Apparent volume of distribution during terminal phase in CD1 mouse at 1 mg/kg, iv measured upto 24 hrs by LC-MS/MS method; format: ADME, organism-based; details: in vivo
[13] = Tmax in CD1 mouse at 3 mg/kg, po measured upto 24 hrs by LC-MS/MS method; format: ADME, organism-based; details: in vivo
[14] = Tmax in CD1 mouse at 10 mg/kg, po measured upto 24 hrs by LC-MS/MS method; format: ADME, organism-based; details: in vivo
[15] = Cmax in CD1 mouse at 1 mg/kg, iv measured upto 24 hrs by LC-MS/MS method; format: ADME, organism-based; set-up: time < 24 hrs, dose 1 mg/kg, route iv; details: in vivo
[16] = Cmax in CD1 mouse at 3 mg/kg, po measured upto 24 hrs by LC-MS/MS method; format: ADME, organism-based; set-up: time < 24 hrs, dose 3 mg/kg, route po; details: in vivo
[17] = Cmax in CD1 mouse at 10 mg/kg, po measured upto 24 hrs by LC-MS/MS method; format: ADME, organism-based; set-up: time < 24 hrs, dose 10 mg/kg, route po; details: in vivo
[18] = AUClast in CD1 mouse at 1 mg/kg, iv measured upto 24 hrs by LC-MS/MS method; format: ADME, organism-based; set-up: time < 24 hrs, dose 1 mg/kg, route iv; details: in vivo
[19] = AUClast in CD1 mouse at 3 mg/kg, po measured upto 24 hrs by LC-MS/MS method; format: ADME, organism-based; set-up: dose 3 mg/kg, time < 24 hrs, route po; details: in vivo
[20] = AUClast in CD1 mouse at 10 mg/kg, po measured upto 24 hrs by LC-MS/MS method; format: ADME, organism-based; set-up: dose 10 mg/kg, time < 24 hrs, route po; details: in vivo
[21] = Half life in CD1 mouse at 1 mg/kg, iv measured upto 24 hrs by LC-MS/MS method; format: ADME, organism-based; details: in vivo
[22] = Half life in CD1 mouse at 3 mg/kg, po measured upto 24 hrs by LC-MS/MS method; format: ADME, organism-based; details: in vivo
[23] = Half life in CD1 mouse at 10 mg/kg, po measured upto 24 hrs by LC-MS/MS method; format: ADME, organism-based; details: in vivo
[24] = Unbound clearance in CD1 mouse at 1 mg/kg, iv measured upto 24 hrs by LC-MS/MS method; format: ADME, organism-based; details: in vivo
[25] = Unbound clearance in CD1 mouse at 3 mg/kg, po measured upto 24 hrs by LC-MS/MS method; format: ADME, organism-based; details: in vivo
[26] = Unbound clearance in CD1 mouse at 10 mg/kg, po measured upto 24 hrs by LC-MS/MS method; format: ADME, organism-based; details: in vivo
[27] = Oral bioavailability in CD1 mouse at 3 mg/kg measured upto 24 hrs by LC-MS/MS method; format: ADME, organism-based; details: in vivo
[28] = Oral bioavailability in CD1 mouse at 10 mg/kg measured upto 24 hrs by LC-MS/MS method; format: ADME, organism-based; details: in vivo
[29] = molecular target: T2, Bromodomain-containing protein 4; remark: listed apart in the source
Description: Inhibition of BRD4 BD1 (unknown origin) by TR-FRET assay

[30] = human, microsomes
[31] = buffer, pH 7.4, 18 h
Description: Solubility of the compound in PBS buffer at pH 7.4 incubated for 18 hrs by UV spectrometry analysis

[32] = in vitro; details: human, Caco-2
[33] = in vitro; details: human, plasma; remark: listed apart in the source
Description: Plasma protein binding in human by RED analysis

T1 sequence (P25440 whole entry): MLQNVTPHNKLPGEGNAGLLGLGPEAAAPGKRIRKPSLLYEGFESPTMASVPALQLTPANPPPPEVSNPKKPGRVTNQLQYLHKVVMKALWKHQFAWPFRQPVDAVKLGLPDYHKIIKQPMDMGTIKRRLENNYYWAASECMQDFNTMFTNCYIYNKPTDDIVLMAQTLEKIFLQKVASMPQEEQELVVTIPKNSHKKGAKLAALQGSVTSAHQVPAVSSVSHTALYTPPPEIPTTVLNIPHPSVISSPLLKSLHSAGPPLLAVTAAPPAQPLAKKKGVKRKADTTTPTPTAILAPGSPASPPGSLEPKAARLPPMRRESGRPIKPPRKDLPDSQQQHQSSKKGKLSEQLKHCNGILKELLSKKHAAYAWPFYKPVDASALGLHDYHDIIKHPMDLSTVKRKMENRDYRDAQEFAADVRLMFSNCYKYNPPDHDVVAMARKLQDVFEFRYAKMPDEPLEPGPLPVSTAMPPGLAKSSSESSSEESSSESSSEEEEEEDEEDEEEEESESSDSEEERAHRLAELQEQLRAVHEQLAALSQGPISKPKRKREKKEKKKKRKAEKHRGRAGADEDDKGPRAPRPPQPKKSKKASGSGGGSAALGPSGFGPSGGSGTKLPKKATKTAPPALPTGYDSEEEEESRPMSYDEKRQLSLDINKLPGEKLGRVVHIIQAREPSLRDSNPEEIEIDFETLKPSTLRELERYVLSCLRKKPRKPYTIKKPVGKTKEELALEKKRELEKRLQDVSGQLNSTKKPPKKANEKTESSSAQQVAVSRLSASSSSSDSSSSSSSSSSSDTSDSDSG

Cc1sc2c(c1C)C(c1ccc(Cl)cc1)=N[C@@H](CC(=O)NCC(=O)O)c1nnc(C)n1-2
IC50 [1]: 146 nM
IC50 [2]: 0.3 nM
IC50 [3]: 0.4 nM
IC50 [4]: 9340 nM
IC50 [5]: > 8850 nM
IC50 [6]: > 8850 nM
IC50 [7]: 3060 nM
half-life at 48 h [8]: > 100 h

COC(=O)CNC(=O)C[C@@H]1N=C(c2ccc(Cl)cc2)c2c(sc(C)c2C)-n2c(C)nnc21
IC50 [4]: 359 nM
IC50 [5]: 337 nM
IC50 [6]: 16 nM
IC50 [9]: 9 nM

Cc1sc2c(c1C)C(c1ccc(Cl)cc1)=N[C@@H](CC(=O)Nc1nncs1)c1nnc(C)n1-2
IC50 [2]: 0.1 nM
Activity [10]: 50%
Activity [11]: 22%
Vz/F [12]: 0.8 L/kg
Tmax [13]: 1 h
Tmax [14]: 0.5 h
Cmax [15]: 1930 ng/mL
Cmax [16]: 1555.3 ng/mL
Cmax [17]: 3155.6 ng/mL
AUClast [18]: 1567.1 ng·h/mL
AUClast [19]: 3275.4 ng·h/mL
AUClast [20]: 9473 ng·h/mL
t1/2 [21]: 1.5 h
t1/2 [22]: 3.9 h
t1/2 [23]: 3.9 h
CL free [24]: 10.6 mL/min/kg
CL free [25]: 15.2 mL/min/kg
CL free [26]: 17.5 mL/min/kg
F [27]: 70%
F [28]: 60%
IC50 [29]: 6 nM
IC50 [3]: 0.2 nM
t1/2 [30]: 3.2 h
solubility [31]: 12 µM (≈ 5.81 µg/mL)
IC50 [4]: 6 nM
IC50 [5]: 56 nM
IC50 [6]: 3 nM
IC50 [9]: 10 nM
IC50 [7]: 20 nM
half-life at 48 h [8]: > 100 h
Papp A→B [32]: 6.65 ×10⁻⁶ cm/s

Cc1sc2c(c1C)C(c1ccc(Cl)cc1)=N[C@@H](CC(=O)NCc1ccccn1)c1nnc(C)n1-2
IC50 [1]: 16 nM
IC50 [2]: 0.3 nM
IC50 [4]: 263 nM
IC50 [5]: 228 nM
IC50 [6]: 14 nM
IC50 [9]: 8 nM
IC50 [7]: 444 nM

Cc1sc2c(c1C)C(c1ccc(Cl)cc1)=N[C@@H](CC(=O)Nc1nccs1)c1nnc(C)n1-2
IC50 [1]: 10 nM
IC50 [4]: 4 nM
IC50 [6]: 6 nM
IC50 [9]: 22 nM
IC50 [7]: 40 nM
half-life at 48 h [8]: > 100 h

Cc1sc2c(c1C)C(c1ccc(Cl)cc1)=N[C@@H](CC(=O)NCc1ccon1)c1nnc(C)n1-2
IC50 [1]: 3 nM
IC50 [2]: 0.1 nM
t1/2 [30]: 0.4 h
solubility [31]: 56.9 µM (≈ 27.4 µg/mL)
IC50 [4]: 17 nM
IC50 [5]: 25 nM
IC50 [6]: 12 nM
IC50 [9]: 14 nM
IC50 [7]: 32 nM
half-life at 48 h [8]: > 100 h
Papp A→B [32]: 15 ×10⁻⁶ cm/s
fraction unbound [33]: 0.065

Cc1sc2c(c1C)C(c1ccc(Cl)cc1)=N[C@@H](CC(=O)NCc1ncco1)c1nnc(C)n1-2
IC50 [1]: 9 nM
IC50 [2]: 0.1 nM
IC50 [4]: 1 nM
IC50 [5]: 18 nM
IC50 [9]: 2 nM

Cc1sc2c(c1C)C(c1ccc(Cl)cc1)=N[C@@H](CC(=O)Nc1ccc(O)cc1)c1nnc(C)n1-2 [BIRABRESIB]
t1/2 [30]: 1.7 h
solubility [31]: 23.4 µM (≈ 11.5 µg/mL)
IC50 [5]: 66 nM
IC50 [6]: 14 nM
IC50 [9]: 11 nM
IC50 [7]: 22 nM
half-life at 48 h [8]: > 100 h
Papp A→B [32]: 22.2 ×10⁻⁶ cm/s
fraction unbound [33]: 0.027
